In the NIST ThermoML archive (doi:10.1021/je901020a):

What was measured:
[1] = xn = mol fraction of the nth substance listed; details: 101 kPa, Liquid; for speed of sound: Pulse-echo method
[2] = refractive index (Na D-line) (dimensionless); xn = mol fraction of the nth substance listed; details: 101 kPa, Liquid, Standard Abbe refractometry

C1CCCCCCC1 [cyclooctane] + Cc1cccc(C)c1
Details | mass density, [1] [kg/m3] | refractive index, [2] | speed of sound, [1] [m/s]
298.15 K, x1 = 0.0545 | 857.4 | 1.49186 | 1322
298.15 K, x1 = 0.0993 | 855.5 | 1.48961 | 1324
298.15 K, x1 = 0.2059 | 851.1 | 1.4845 | 1328
298.15 K, x1 = 0.3074 | 847.4 | 1.4799 | 1333
298.15 K, x1 = 0.3933 | 844.4 | 1.47623 | 1338
298.15 K, x1 = 0.5031 | 841 | 1.47176 | 1346
298.15 K, x1 = 0.6002 | 838.2 | 1.46806 | 1353
298.15 K, x1 = 0.6993 | 835.9 | 1.46461 | 1361
298.15 K, x1 = 0.8198 | 833.5 | 1.46072 | 1372
298.15 K, x1 = 0.8909 | 832.4 | 1.45869 | 1379
298.15 K, x1 = 0.9503 | 831.8 | 1.45714 | 1385
298.15 K, x1 = 1 | 831.5 | 1.45598 | 1391
313.15 K, x1 = 0.0506 | 844.7 | 1.48423 | 1260
313.15 K, x1 = 0.0888 | 843.1 | 1.48242 | 1262
313.15 K, x1 = 0.1861 | 839.3 | 1.47779 | 1265
313.15 K, x1 = 0.2924 | 835.4 | 1.47308 | 1270
313.15 K, x1 = 0.3795 | 832.4 | 1.46944 | 1275
313.15 K, x1 = 0.487 | 829.1 | 1.46522 | 1282
313.15 K, x1 = 0.5832 | 826.4 | 1.46159 | 1289
313.15 K, x1 = 0.6823 | 824 | 1.45808 | 1296
313.15 K, x1 = 0.7874 | 821.9 | 1.45469 | 1305
313.15 K, x1 = 0.8879 | 820.3 | 1.45169 | 1315
313.15 K, x1 = 0.9389 | 819.7 | 1.45047 | 1320
313.15 K, x1 = 1 | 819.2 | 1.44877 | 1326
